In patent publication US20200068887A1, “TREATMENT FOR REMOVING ECTOPARASITES FROM FISH” (priority 2016, published 2020):
Several values for one entry are separate records, joined by “and”; a condition that tells them apart may be missing. Equal entries are not always repeated.

Columns and labels:
[1] = tested on: sea lice; assay: Comparison on isolated sea lice (in vitro bath exposure); details: registered approx. 20 h after end of exposure
Protocol: Both pre-adult and adult stages (mobile stages) of both sexes were used, and they were equally distributed among groups. The sea lice were exposed to imidacloprid for 60 minutes, azamethiphos for 60 minutes and deltamethrin for 30 minutes in one litre baths at a range of concentrations (Tables 6, 7 and 8). The sea lice were transferred to clean aerated seawater after treatment. The temperature of the seawater during the experiment was 12° C., but during exposure the temperature raised to approx. 14° C. in regimes exposed for 60 min. (imidacloprid and azamethiphos) and to 13° C. for the regime exposed in 30 minutes (deltamethrin).
The numbers of live and immobilised (including killed) lice in each regime were registered approximately 20 h after end of exposure. Each louse was individually investigated.

[2] = tested on: salmon louse; assay: Bath treatment of lice-infected Atlantic salmon, percent lice removed; format: in vivo; details: duplicate
Protocol: To determine the concentration- and time-dependence of imidacloprid treatment in vivo, Atlantic salmon (average of 320.9 g) were challenged with imidacloprid in seawater (32.5%0 salinity) at 12° C. The water level in the tank was lowered and aeration was employed during administration of the active. The salmon louse copepodid culture was counted and adjusted to obtain a target level of around 40 copepodids per fish in the challenge tank at each challenge time point.
Salmon lice on the fish were counted using standard methods. Only lice on the fish's outer surface, not including gills and oral/buccal cavities, were investigated.
Numbers of dissociated lice in tank water or attached to the tank walls were recorded. Lice in the tank water were collected and assessed for ability to attach by suction to a smooth plastic surface immediately after treatment and again after 30-60 minutes (to assess possible revival). Live and viable lice were also collected from the mock-treated control groups for reference and held in revival chambers for the same period of time to assess the system.
The test solutions of the active were prepared (added and homogenised with seawater) and administered to a treatment volume of 40 litres.
Three sea lice-infected fish from the holding tank were randomly gathered and carefully steered into a barrel forming an inner compartment (diameter=34.5-40 cm; height=54 cm) that was submerged in the tank and in which the base has been replaced with a plastic mesh screen with 9 mm^2 square holes.
The fish were transferred to the inner compartment within 3 minutes of each test start. The inner compartment was suspended/submerged in the holding tank pending treatment. Treatments and mock treatments were implemented by draining the inner compartment with fish and transferring it to a barrel containing the test solution. Treatments/mock treatments were performed in static water with aeration/oxygenation. Aeration was adjusted to set the oxygen saturation to 70-100%.
To terminate the treatment, the inner compartment with treated fish was lifted to the surface and drained, then fish were transferred directly and without water to a second basin with a lethal overdose of anaesthetic and left until dead. All lice remaining on these fish and lice that fell off in the anaesthetic bath were recorded.
Exposure times with imidacloprid ranged from 3 to 60 minutes, and doses ranged from 20 ppm to 200 ppm.
Negative control groups at 3- and 60 minutes were duplicated. Superscript numbers denote the total number of lice on the 3 fish in each test.
By way of comparison, fish infected with sea lice from the same sources were treated with azamethiphos at 0.1 mg/l and deltamethrin at 0.2 μ/l for 30 minutes, per the recommended dosage regimes. Treatments were carried out under similar conditions as those treated with imidacloprid. A mock-treatment control was also administered. Each treatment condition was administered in duplicate.
Superscript numbers denote the total number of lice on the 3 fish in each test.

[3] = azamethiphos 5 ppm, 60 min exposure
[4] = azamethiphos 10 ppm, 60 min exposure
[5] = azamethiphos 15 ppm, 60 min exposure
[6] = azamethiphos 20 ppm, 60 min exposure
[7] = deltamethrin 5 ppm, 30 min exposure
[8] = deltamethrin 15 ppm, 30 min exposure
[9] = deltamethrin 20 ppm, 30 min exposure
[10] = deltamethrin 30 ppm, 30 min exposure

With `COP(=O)(OC)SCn1c(=O)oc2cc(Cl)cnc21` [azamethiphos] the “% effect” value [1, 3] was 0%, the Immobilised [1, 3] was 0 and the Live [1, 3] was 10. For the same compound, the “% effect” value [1, 4] was 10%, the Immobilised [1, 4] was 1 and the Live [1, 4] was 9. For the same compound, the “% effect” value [1, 5] was 0%, the Immobilised [1, 5] was 0 and the Live [1, 5] was 10. For the same compound, the “% effect” value [1, 6] was 10% and 20%, the Immobilised [1, 6] was 1 and 2 and the Live [1, 6] was 9 and 8. For the same compound, the Live ([1]; azamethiphos 30 ppm, 60 min exposure) was 9 and 6 and the “% Removal” value ([2]; azamethiphos at 0.1 mg/l for 30 minutes, 52 and 33 lice on 3 fish) was 3.0^33% and 3.8^52%.

In the case of `CC1(C)[C@H](C(=O)O[C@H](C#N)c2cccc(Oc3ccccc3)c2)[C@@H]1C=C(Br)Br` [deltamethrin], the “% effect” value [1, 7] was 0%, the Immobilised [1, 7] was 0 and the Live [1, 7] was 10. The Live ([1]; deltamethrin 10 ppm, 30 min exposure) was 9 and 10, the “% effect” value [1, 8] was 20% and 10% and the Immobilised [1, 8] was 2 and 1. The Live [1, 8] was 8 and 9, the “% effect” value [1, 9] was 20% and 10% and the Immobilised [1, 9] was 2 and 1. The Live [1, 9] was 8 and 9, the Immobilised [1, 10] was 1 and 2 and the Live [1, 10] was 10 and 8. The “% Removal” value ([2]; deltamethrin at 0.2 μ/l for 30 minutes, 37 lice on 3 fish each) was 0^37%.
